In brackets after ≈: the same amount, converted by molar mass. *1 amine or outer side, *2 acyl side, *3 side chain or, on linkers, in order; H or OH if unused. Where a SMILES comes first, the peptide text is derived from it. Bridges are numbered along the chain shown (N, C = ends). [ ]: non-standard residue; d: D form. The star is where a group is joined. hTyr(3S-OH,4S-OH,3'-OSO3H) = N[C@H](C(=O)O)[C@H](O)[C@@H](O)c1ccc(O)c(OS(=O)(=O)O)c1; Orn(4R-OH,5R-OH) = O=C([C@H](C[C@@H](O)[C@@H](O)N[*:3])N[*:1])[*:2]; Pro(3S-OH,4S-Me) = C[C@H]1CN[C@H](C(=O)O)[C@H]1O; X1 = CCCCCOc1ccc(-c2cc(-c3ccc(C(=O)*)cc3)no2)cc1; Gln(3R-OH) = NC(=O)C[C@@H](O)[C@H](N)C(=O)O; Hyp = O=C(O)[C@@H]1C[C@@H](O)CN1
Columns and labels:
[1] = test system: C. albicans; assay: Minimum inhibitory concentration broth double-dilution assay; assay type: cell-based, Candida albicans; conditions: 24 h, 30 °C
Procedure: (§1) The antifungal activities of compounds 1 and 2 were evaluated against a panel of 50 strains of C. albicans and C. glabrata (Table S4), including echinocandin-resistant strains that were constructed by introducing mutations within and near the defined hotspots in the FKS1 and/or FKS2 genes.[27] To evaluate antifungal activity, we determined MIC values. The MIC was defined as the lowest drug concentration that led to turbidity (measured at 600 nm) of less than or equal to 35% of that of the untreated culture. As controls, we tested CSF, MCF, ANF, and RZF.
(§2) All of the tested compounds were dissolved in anhydrous DMSO to a concentration of 5 mg/mL. Candida strains were streaked from a glycerol stock onto YPAD agar plates and grown for 24 h at 30 °C. Colonies were suspended in 1 mL of PBS and diluted to an O.D. of 0.01 at 600 nm with YPAD broth and added into flat-bottom 96-well microplates (Corning) containing a gradient of twofold dilutions per tested compound with concentrations ranging from 64 to 0.0009 μg/mL. Control wells with no drug and blank wells without yeast cells containing YPAD only were also prepared. […] Each concentration was tested in triplicate, and results were confirmed by at least two independent sets of experiments.

[2] = test system: C. glabrata; assay: as above; assay type: cell-based, Candida glabrata; conditions: 24 h, 30 °C
Procedure: as §1, §2

[3] = #2 C. albicans DPL1015 (DP-A15)
[4] = #3 C. albicans DPL1016 (DP-A15-10)

SMILES: CC[C@H](C)C[C@H](C)CCCCCCCCC(=O)N[C@H]1C[C@@H](O)[C@@H](NCCN)NC(=O)[C@@H]2[C@@H](O)CCN2C(=O)[C@H]([C@H](O)CCN)NC(=O)[C@H]([C@H](O)[C@@H](O)c2ccc(O)cc2)NC(=O)[C@@H]2C[C@@H](O)CN2C(=O)[C@H]([C@@H](C)O)NC1=O [CSF, caspofungin]
- MIC ([1]; #1 C. albicans Sc5314): 0.015 µg/mL (≈ 0.0137 µM)
- MIC [1, 3]: 1 µg/mL (≈ 0.915 µM)
- MIC [1, 4]: > 64 µg/mL
- MIC ([1]; #4 C. albicans T-2068 (DP-C42)): 32 µg/mL (≈ 29.3 µM)
- MIC ([1]; #5 C. albicans T-2069 (DP-85)): 16 µg/mL (≈ 14.6 µM)
- MIC ([1]; #6 C. albicans (DP-89)): > 64 µg/mL
- MIC ([1]; #7 C. albicans T-2076 (DP-194)): 1 µg/mL (≈ 0.915 µM)
- MIC ([1]; #8 C. albicans T-2077 (DP-205)): 16 µg/mL (≈ 14.6 µM)
- MIC ([2]; #9 C. glabrata EF1620): 0.031 µg/mL (≈ 0.0284 µM)
- MIC ([2]; #10 C. glabrata TGL00277): > 64 µg/mL
- MIC ([2]; #11 C. glabrata TGL00275): 32 µg/mL (≈ 29.3 µM)
- MIC ([2]; #12 C. glabrata CST78): 0.015 µg/mL (≈ 0.0137 µM)
- MIC ([2]; #13 C. glabrata TGL00265): > 64 µg/mL
- MIC ([2]; #14 C. glabrata TGL00264): 4 µg/mL (≈ 3.66 µM)
- MIC ([2]; #15 C. glabrata TGL00263): 64 µg/mL (≈ 58.5 µM)
- MIC ([2]; #16 C. glabrata TGL00065): > 64 µg/mL
- MIC ([2]; #17 C. glabrata CST34): 0.015 µg/mL (≈ 0.0137 µM)
- MIC ([2]; #18 C. glabrata TGL00258): > 64 µg/mL
- MIC ([2]; #19 C. glabrata TGL00256): 16 µg/mL (≈ 14.6 µM)
- MIC ([2]; #20 C. glabrata TGL00107): > 64 µg/mL
- MIC ([2]; #21 C. glabrata TGL00056): > 64 µg/mL
- MIC ([2]; #22 C. glabrata M12): 0.015 µg/mL (≈ 0.0137 µM)
- MIC ([2]; #23 C. glabrata TGL00270): > 64 µg/mL
- MIC ([2]; #24 C. glabrata TGL00269): 16 µg/mL (≈ 14.6 µM)
- MIC ([2]; #25 C. glabrata TGL00268): > 64 µg/mL
- MIC ([2]; #26 C. glabrata TGL00268): > 64 µg/mL
- MIC ([2]; #27 C. glabrata EB0911): 0.031 µg/mL (≈ 0.0284 µM)
- MIC ([2]; #28 C. glabrata TGL00261): > 64 µg/mL
- MIC ([2]; #29 C. glabrata TGL00109): 64 µg/mL (≈ 58.5 µM)
- MIC ([2]; #30 C. glabrata TGL00259): > 64 µg/mL

SMILES: CCCCCOc1ccc(-c2cc(-c3ccc(C(=O)N[C@H]4C[C@@H](O)[C@@H](O)NC(=O)[C@@H]5[C@@H](O)[C@@H](C)CN5C(=O)[C@H]([C@H](O)CC(N)=O)NC(=O)[C@H]([C@H](O)[C@@H](O)c5ccc(O)c(OS(=O)(=O)O)c5)NC(=O)[C@@H]5C[C@@H](O)CN5C(=O)[C@H]([C@@H](C)O)NC4=O)cc3)no2)cc1 [MCF, micafungin] (X1-[Orn(4R-OH,5R-OH)]T[Hyp][hTyr(3S-OH,4S-OH,3'-OSO3H)][Gln(3R-OH)][Pro(3S-OH,4S-Me)]; lactam 1-C)
- MIC ([1]; #1 C. albicans Sc5314): 0.031 µg/mL (≈ 0.0244 µM)
- MIC [1, 3]: 1 µg/mL (≈ 0.787 µM)
- MIC [1, 4]: 16 µg/mL (≈ 12.6 µM)
- MIC ([1]; #4 C. albicans T-2068 (DP-C42)): 4 µg/mL (≈ 3.15 µM)
- MIC ([1]; #5 C. albicans T-2069 (DP-85)): 2 µg/mL (≈ 1.57 µM)
- MIC ([1]; #6 C. albicans (DP-89)): 4 µg/mL (≈ 3.15 µM)
- MIC ([1]; #7 C. albicans T-2076 (DP-194)): 1 µg/mL (≈ 0.787 µM)
- MIC ([1]; #8 C. albicans T-2077 (DP-205)): 2 µg/mL (≈ 1.57 µM)
- MIC ([2]; #9 C. glabrata EF1620): 0.015 µg/mL (≈ 0.0118 µM)
- MIC ([2]; #10 C. glabrata TGL00277): 8 µg/mL (≈ 6.3 µM)
- MIC ([2]; #11 C. glabrata TGL00275): 2 µg/mL (≈ 1.57 µM)
- MIC ([2]; #12 C. glabrata CST78): 0.004 µg/mL (≈ 0.00315 µM)
- MIC ([2]; #13 C. glabrata TGL00265): 1 µg/mL (≈ 0.787 µM)
- MIC ([2]; #14 C. glabrata TGL00264): > 64 µg/mL
- MIC ([2]; #15 C. glabrata TGL00263): 0.125 µg/mL (≈ 0.0984 µM)
- MIC ([2]; #16 C. glabrata TGL00065): 32 µg/mL (≈ 25.2 µM)
- MIC ([2]; #17 C. glabrata CST34): 0.002 µg/mL (≈ 0.00157 µM)
- MIC ([2]; #18 C. glabrata TGL00258): > 64 µg/mL
- MIC ([2]; #19 C. glabrata TGL00256): 0.125 µg/mL (≈ 0.0984 µM)
- MIC ([2]; #20 C. glabrata TGL00107): > 64 µg/mL
- MIC ([2]; #21 C. glabrata TGL00056): > 64 µg/mL
- MIC ([2]; #22 C. glabrata M12): 0.002 µg/mL (≈ 0.00157 µM)
- MIC ([2]; #23 C. glabrata TGL00270): 16 µg/mL (≈ 12.6 µM)
- MIC ([2]; #24 C. glabrata TGL00269): 0.125 µg/mL (≈ 0.0984 µM)
- MIC ([2]; #25 C. glabrata TGL00268): > 64 µg/mL
- MIC ([2]; #26 C. glabrata TGL00268): > 64 µg/mL
- MIC ([2]; #27 C. glabrata EB0911): 0.008 µg/mL (≈ 0.0063 µM)
- MIC ([2]; #28 C. glabrata TGL00261): 4 µg/mL (≈ 3.15 µM)
- MIC ([2]; #29 C. glabrata TGL00109): > 64 µg/mL
- MIC ([2]; #30 C. glabrata TGL00259): 32 µg/mL (≈ 25.2 µM)

From publication PMC8991007, “Benzylic Dehydroxylation of Echinocandin Antifungal Drugs Restores Efficacy against Resistance Conferred by Mutated Glucan Synthase” (Journal of the American Chemical Society, 2022)
